Results reported in patent publication US10781224B2, “Bis(oxymethyl)phosphinic acid and biogenic metal salts thereof as regulators of plant growth and development” (priority 2016, dated 2020).

System: corn (Krasnodar 385 MV variety)
Assay: Corn seed treatment with BHMPA salts: germinating power
Type: in vivo
Protocol: Experimental versions—soaking seeds in BHMPA solutions and solutions of BHMPA Ca, Mg, Na, Co, Mn, Cu, and Zn salts at 1·10^−6-1·10^−12% concentrations (doses). The studies were conducted in laboratory in Petri dishes; seed bed—two layers of filter paper. 50 seeds soaked in water (control) and in the solutions of the tested compounds (experimental) were placed into each dish. Wheat, corn, and rice seeds were exposed for one hour.
Seed germination energy and rate were calculated in percent as an arithmetic mean of the four experimental results (germination energy on the 4th day, wheat germination on the 8th day, rice and corn germination—on the 7th day). Germination was determined based on the germinating power indicators (length of the roots and sprouts and their wet and dry mass per 100 shoots).
The effect of pre-sowing seed treatment with the claimed BHMPA salts of biogenic metals was studied on winter wheat (Vershin variety), corn (Krasnodar 385 MV variety), and rice (Diamant variety).
The above data describe the seed viability only at the initial stage of germination, while the germination ability at the later stage of germination is defined by the initial germinating power. The method for the determination of the germinating power comprises measuring the height of the sprouts and primary roots, as well as the biomass and the dry mass thereof per 100 seedlings. [M. A. Kartuzova. Initial Germinating Power as Method of Biological Assessment of Seed Quality. Selection and Seed Farming, #2, 1953].

[1] = corn seeds, solution concentration 1 · 10^−6%, cobalt salt of BHMPA
[2] = corn seeds, solution concentration 1 · 10^−7%, cobalt salt of BHMPA
[3] = corn seeds, solution concentration 1 · 10^−8%, cobalt salt of BHMPA
[4] = corn seeds, solution concentration 1 · 10^−9%, cobalt salt of BHMPA
[5] = corn seeds, solution concentration 1 · 10^−10%, cobalt salt of BHMPA
[6] = corn seeds, solution concentration 1 · 10^−11%, cobalt salt of BHMPA
[7] = corn seeds, solution concentration 1 · 10^−12%, cobalt salt of BHMPA

`O.O.O=P([O-])(CO)CO.O=P([O-])(CO)CO.[Co+2]` [Co-salt, Cobalt BHMPA Salt] was tested, and the “optimum concentration for treating corn seeds before sowing” value (corn) was 1·10^−7%, the “Length, root” value [1] was 5.0 cm and the “Length, root, + % to control” value [1] was 6%. For the same compound, the “Length, sprout” value [1] was 3.2 cm, the “Length, sprout, + % to control” value [1] was 7% and the “Mass, dry, root” value [1] was 1.31 g/100 plantlings. The “Mass, dry, root, + % to control” value [1] was 5%, the “Mass, dry, sprout” value [1] was 1.09 g/100 plantlings and the “Mass, dry, sprout, + % to control” value [1] was 12%. The “Mass, wet, root” value [1] was 9.76 g/100 plantlings, the “Mass, wet, root, + % to control” value [1] was 9% and the “Mass, wet, sprout” value [1] was 7.75 g/100 plantlings. For the same compound, the “Mass, wet, sprout, + % to control” value [1] was 24.5%, the “Length, root” value [2] was 6.2 cm and the “Length, root, + % to control” value [2] was 32%. The “Length, sprout” value [2] was 3.8 cm, the “Length, sprout, + % to control” value [2] was 27% and the “Mass, dry, root” value [2] was 1.44 g/100 plantlings. The “Mass, dry, sprout” value [2] was 1.21 g/100 plantlings, the “Mass, dry, sprout, + % to control” value [2] was 25% and the “Mass, wet, root” value [2] was 10.77 g/100 plantlings. For the same compound, the “Mass, wet, root, + % to control” value [2] was 20%, the “Mass, wet, sprout” value [2] was 9.96 g/100 plantlings and the “Mass, wet, sprout, + % to control” value [2] was 60%. The “Length, root” value [3] was 5.6 cm, the “Length, root, + % to control” value [3] was 19% and the “Length, sprout” value [3] was 3.6 cm. For the same compound, the “Length, sprout, + % to control” value [3] was 20%, the “Mass, dry, root” value [3] was 1.37 g/100 plantlings and the “Mass, dry, root, + % to control” value [3] was 10%. For the same compound, the “Mass, dry, sprout” value [3] was 1.14 g/100 plantlings, the “Mass, dry, sprout, + % to control” value [3] was 17.5% and the “Mass, wet, root” value [3] was 10.17 g/100 plantlings. For the same compound, the “Mass, wet, root, + % to control” value [3] was 13%, the “Mass, wet, sprout” value [3] was 9.00 g/100 plantlings and the “Mass, wet, sprout, + % to control” value [3] was 45%. For the same compound, the “Length, root” value [4] was 5.0 cm, the “Length, root, + % to control” value [4] was 6% and the “Length, sprout” value [4] was 3.5 cm. For the same compound, the “Length, sprout, + % to control” value [4] was 17%, the “Mass, dry, root” value [4] was 1.31 g/100 plantlings and the “Mass, dry, root, + % to control” value [4] was 5%. The “Mass, dry, sprout” value [4] was 1.07 g/100 plantlings, the “Mass, dry, sprout, + % to control” value [4] was 10% and the “Mass, wet, root” value [4] was 10.00 g/100 plantlings. For the same compound, the “Mass, wet, root, + % to control” value [4] was 11%, the “Mass, wet, sprout” value [4] was 7.58 g/100 plantlings and the “Mass, wet, sprout, + % to control” value [4] was 22%. The “Length, root” value [5] was 4.9 cm, the “Length, root, + % to control” value [5] was 4% and the “Length, sprout” value [5] was 3.3 cm. For the same compound, the “Length, sprout, + % to control” value [5] was 10%, the “Mass, dry, root” value [5] was 1.29 g/100 plantlings and the “Mass, dry, root, + % to control” value [5] was 3%. The “Mass, dry, sprout” value [5] was 1.03 g/100 plantlings, the “Mass, dry, sprout, + % to control” value [5] was 6% and the “Mass, wet, root” value [5] was 9.80 g/100 plantlings. The “Mass, wet, root, + % to control” value [5] was 9%, the “Mass, wet, sprout” value [5] was 6.75 g/100 plantlings and the “Mass, wet, sprout, + % to control” value [5] was 8.5%. For the same compound, the “Length, root” value [6] was 4.5 cm, the “Length, root, + % to control” value [6] was −4% and the “Length, sprout” value [6] was 3.0 cm. The “Length, sprout, + % to control” value [6] was 0%, the “Mass, dry, root” value [6] was 1.27 g/100 plantlings and the “Mass, dry, root, + % to control” value [6] was 2%. For the same compound, the “Mass, dry, sprout” value [6] was 0.98 g/100 plantlings, the “Mass, dry, sprout, + % to control” value [6] was 1% and the “Mass, wet, root” value [6] was 9.62 g/100 plantlings. For the same compound, the “Mass, wet, root, + % to control” value [6] was 7%, the “Mass, wet, sprout” value [6] was 6.41 g/100 plantlings and the “Mass, wet, sprout, + % to control” value [6] was 3%. The “Length, root” value [7] was 4.2 cm, the “Length, root, + % to control” value [7] was −11% and the “Length, sprout” value [7] was 2.9 cm. For the same compound, the “Length, sprout, + % to control” value [7] was −3%, the “Mass, dry, root” value [7] was 1.22 g/100 plantlings and the “Mass, dry, root, + % to control” value [7] was −2%. For the same compound, the “Mass, dry, sprout” value [7] was 0.98 g/100 plantlings, the “Mass, dry, sprout, + % to control” value [7] was 1% and the “Mass, wet, root” value [7] was 9.28 g/100 plantlings. The “Mass, wet, root, + % to control” value [7] was 3%, the “Mass, wet, sprout” value [7] was 6.23 g/100 plantlings and the “Mass, wet, sprout, + % to control” value [7] was 0%. The “Length, root, + % to control” value (corn, 1·10^−7% solution) was 32%, the “Length, sprout, + % to control” value (corn, 1·10^−7% solution) was 27% and the “Mass, dry, root, + % to control” value (corn, 1·10^−7% solution) was 15%. The “Mass, dry, sprout, + % to control” value (corn, 1·10^−7% solution) was 25%, the “Mass, wet, root, + % to control” value (corn, 1·10^−7% solution) was 20% and the “Mass, wet, sprout, + % to control” value (corn, 1·10^−7% solution) was 60%. For the same compound, the “germination intensity vs control” value (corn, 1·10^−11% and 1·10^−12% solutions) was “no increase in the germination intensity”.
